Patent US20090012011A1, “Novel Compounds” (SmithKline Beecham Corporation, priority 2006, published 2009)

Experiments:
[1] = target: T1, TRPV4 channel receptors (Bos taurus, UniProt A0A8F4X677); test: Ca2+ influx, Fura-2 fluorescence on FlexStation, bovine articular chondrocytes; format: cell-based
T1 construct: obtained using this method in bovine articular chondrocytes; endogenous in cells; host or cells: bovine articular chondrocytes
Text: (§1) Ca^2+ influx mediated through TRPV4 channel receptors can be measured using articular chondrocytes from such species as, but not limited to, human, rat, canine, rabbit, monkey, and bovine, using standard techniques in the art such as, but not limited to, Fura-2 (Invitrogen/Molecular Probes, Eugene, Oreg.) fluorescence using a FlexStation (manufactured by Molecular Devices, Sunnyvale, Calif.). Table 1 lists biological data for several representative compounds obtained using this method in bovine articular chondrocytes.

[2] = target: T2, TRPV4 channel receptors (Homo sapiens, UniProt Q9HBA0); test: Ca2+ influx, Fura-2 fluorescence on FlexStation, human articular chondrocytes; format: cell-based
T2 construct: obtained using this method in human articular chondrocytes; endogenous in cells; host or cells: human articular chondrocytes
Text: as §1
Table 2 lists biological data for several representative compounds obtained using this method in human articular chondrocytes.

T2 sequence (Q9HBA0 whole entry): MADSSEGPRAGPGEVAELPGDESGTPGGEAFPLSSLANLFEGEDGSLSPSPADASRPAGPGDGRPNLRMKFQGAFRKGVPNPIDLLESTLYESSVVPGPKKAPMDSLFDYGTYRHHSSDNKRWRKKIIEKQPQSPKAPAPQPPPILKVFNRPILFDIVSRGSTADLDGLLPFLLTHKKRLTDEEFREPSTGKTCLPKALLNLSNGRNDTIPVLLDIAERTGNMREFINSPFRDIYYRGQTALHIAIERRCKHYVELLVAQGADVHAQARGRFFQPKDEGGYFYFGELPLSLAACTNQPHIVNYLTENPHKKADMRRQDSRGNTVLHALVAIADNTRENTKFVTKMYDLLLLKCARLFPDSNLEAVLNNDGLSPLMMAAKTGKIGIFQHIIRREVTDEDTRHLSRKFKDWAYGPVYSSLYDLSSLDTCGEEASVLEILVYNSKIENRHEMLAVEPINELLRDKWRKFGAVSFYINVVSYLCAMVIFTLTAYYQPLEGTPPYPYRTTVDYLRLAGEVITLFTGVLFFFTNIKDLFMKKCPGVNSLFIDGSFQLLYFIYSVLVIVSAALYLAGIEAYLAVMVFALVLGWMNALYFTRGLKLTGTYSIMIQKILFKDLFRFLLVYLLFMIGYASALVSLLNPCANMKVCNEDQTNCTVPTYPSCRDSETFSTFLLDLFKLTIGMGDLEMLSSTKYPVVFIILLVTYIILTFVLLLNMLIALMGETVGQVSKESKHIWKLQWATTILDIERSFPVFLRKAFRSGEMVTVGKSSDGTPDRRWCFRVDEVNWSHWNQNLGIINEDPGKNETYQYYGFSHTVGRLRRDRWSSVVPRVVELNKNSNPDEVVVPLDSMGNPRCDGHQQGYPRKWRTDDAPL
T1 sequence (A0A8F4X677 1-871): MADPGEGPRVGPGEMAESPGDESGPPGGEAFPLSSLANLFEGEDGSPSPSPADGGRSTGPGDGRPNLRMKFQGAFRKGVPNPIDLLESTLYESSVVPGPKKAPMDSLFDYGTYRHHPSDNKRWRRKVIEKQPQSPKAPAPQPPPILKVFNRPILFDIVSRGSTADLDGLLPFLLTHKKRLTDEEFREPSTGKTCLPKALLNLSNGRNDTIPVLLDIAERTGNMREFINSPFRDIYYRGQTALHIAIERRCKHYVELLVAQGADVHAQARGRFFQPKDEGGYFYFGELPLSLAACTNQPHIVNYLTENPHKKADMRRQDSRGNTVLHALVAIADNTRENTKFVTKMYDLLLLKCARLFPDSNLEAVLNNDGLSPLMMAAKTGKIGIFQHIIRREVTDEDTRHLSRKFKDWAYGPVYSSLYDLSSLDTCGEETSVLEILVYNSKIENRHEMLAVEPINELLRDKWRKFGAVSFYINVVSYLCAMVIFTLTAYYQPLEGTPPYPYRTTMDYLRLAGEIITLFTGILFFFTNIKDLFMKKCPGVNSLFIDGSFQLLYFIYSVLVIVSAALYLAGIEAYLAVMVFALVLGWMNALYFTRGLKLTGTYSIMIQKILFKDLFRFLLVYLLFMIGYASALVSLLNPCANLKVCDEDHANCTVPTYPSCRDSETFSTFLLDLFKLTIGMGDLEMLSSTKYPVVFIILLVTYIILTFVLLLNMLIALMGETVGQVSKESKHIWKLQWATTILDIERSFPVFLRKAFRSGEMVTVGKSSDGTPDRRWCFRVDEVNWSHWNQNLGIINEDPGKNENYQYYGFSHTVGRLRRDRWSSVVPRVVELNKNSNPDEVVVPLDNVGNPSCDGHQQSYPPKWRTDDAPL

EC50 [1] [µM]	EC50 [2] [µM]	Compound
0.07 to 0.1	0.1 to 1	CC(C)C[C@H](NC(=O)c1cc2ccccc2s1)C(=O)NC[C@@H]1CN(S(=O)(=O)c2ccc(F)cc2Cl)C[C@@H]1O (single isomer, unassigned) [Example 2]
0.03 to 0.06	0.03 to 0.09	CC(C)C[C@H](NC(=O)c1cc2ccccc2s1)C(=O)NC[C@H]1CN(S(=O)(=O)c2ccc(Cl)cc2Cl)C[C@H]1O (single isomer, unassigned) [Example 3]
	1 to 10	CC(C)C[C@H](NC(=O)c1cc2ccccc2s1)C(=O)NC[C@@H]1CN(S(=O)(=O)c2ccc(F)cc2C(F)(F)F)C[C@@H]1O (single isomer, unassigned) [Example 6]
